# Test results reported in ChEMBL document CHEMBL2069252, “Pyrazole diaminopyrimidines as dual inhibitors of KDR and Aurora B kinases” (Bioorg Med Chem Lett, 2012).
# Molecular target: T1, Vascular endothelial growth factor receptor 2 (Homo sapiens, UniProt P35968)
# Experiment: Inhibition of KDR by HTRF analysis in presence of 1 mM ATP
# Conditions: not given
# T1 sequence (P35968 whole entry): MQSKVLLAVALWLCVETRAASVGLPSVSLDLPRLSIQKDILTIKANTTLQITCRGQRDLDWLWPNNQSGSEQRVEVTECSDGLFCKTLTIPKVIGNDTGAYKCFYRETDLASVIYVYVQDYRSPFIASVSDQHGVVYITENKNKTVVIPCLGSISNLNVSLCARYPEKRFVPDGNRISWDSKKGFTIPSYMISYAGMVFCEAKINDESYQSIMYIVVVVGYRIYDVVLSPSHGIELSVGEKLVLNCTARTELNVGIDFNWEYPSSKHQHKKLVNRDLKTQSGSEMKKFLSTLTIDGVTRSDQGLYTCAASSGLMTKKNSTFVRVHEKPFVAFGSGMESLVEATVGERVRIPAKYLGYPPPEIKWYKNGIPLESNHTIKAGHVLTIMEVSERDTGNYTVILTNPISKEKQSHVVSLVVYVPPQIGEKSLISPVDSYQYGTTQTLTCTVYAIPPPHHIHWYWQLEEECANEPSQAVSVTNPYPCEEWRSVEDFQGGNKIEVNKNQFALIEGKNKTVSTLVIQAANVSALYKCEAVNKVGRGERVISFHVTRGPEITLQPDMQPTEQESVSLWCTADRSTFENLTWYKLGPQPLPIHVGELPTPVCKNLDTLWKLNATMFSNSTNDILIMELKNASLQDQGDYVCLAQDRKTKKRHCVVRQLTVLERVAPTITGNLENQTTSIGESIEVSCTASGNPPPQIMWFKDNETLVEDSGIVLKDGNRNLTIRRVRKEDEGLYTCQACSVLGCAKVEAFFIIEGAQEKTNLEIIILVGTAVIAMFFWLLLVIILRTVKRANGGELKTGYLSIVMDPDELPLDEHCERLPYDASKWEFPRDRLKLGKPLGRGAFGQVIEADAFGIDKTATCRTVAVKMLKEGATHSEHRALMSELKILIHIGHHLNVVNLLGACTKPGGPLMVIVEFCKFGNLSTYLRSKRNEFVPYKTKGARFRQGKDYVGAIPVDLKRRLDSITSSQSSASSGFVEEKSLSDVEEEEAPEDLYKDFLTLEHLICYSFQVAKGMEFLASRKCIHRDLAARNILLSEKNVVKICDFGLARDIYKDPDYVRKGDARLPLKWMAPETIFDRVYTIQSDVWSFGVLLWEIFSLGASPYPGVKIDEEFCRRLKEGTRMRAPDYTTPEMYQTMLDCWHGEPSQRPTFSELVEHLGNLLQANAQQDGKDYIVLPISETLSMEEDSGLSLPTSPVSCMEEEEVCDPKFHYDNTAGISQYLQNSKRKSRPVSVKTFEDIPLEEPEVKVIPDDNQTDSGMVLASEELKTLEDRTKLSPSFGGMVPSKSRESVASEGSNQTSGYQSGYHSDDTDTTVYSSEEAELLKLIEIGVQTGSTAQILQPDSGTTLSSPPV
row,Compound,IC50 [nM]
1,Cn1cc(Nc2ncc(F)c(N[C@H]3[C@@H](C(N)=O)[C@@H]4C=C[C@H]3C4)n2)cn1,329
2,Cn1cc(Nc2ncc(C(F)(F)F)c(Nc3ccccc3C(N)=O)n2)cn1,431
3,Cn1cc(Nc2ncc(C(N)=O)c(N[C@H]3[C@@H](C(N)=O)[C@@H]4C=C[C@H]3C4)n2)cn1,1540
4,Cn1cc(Nc2ncc(C(F)(F)F)c(N[C@H]3[C@@H](C(N)=O)[C@@H]4C=C[C@H]3C4)n2)cn1,12
5,Cn1cc(Nc2ncc(Cl)c(N[C@@H]3CCC[C@@H]3C(N)=O)n2)cn1,246
6,Cn1cc(Nc2ncc(Cl)c(N[C@@H]3[C@H]4CC[C@H](C4)[C@@H]3C(N)=O)n2)cn1,19
7,Cn1cc(Nc2ncc(C(F)(F)F)c(N[C@@H]3[C@H]4CC[C@H](C4)[C@@H]3C(N)=O)n2)cn1,74
8,Cn1cc(Nc2ncc(Cl)c(N[C@H]3[C@H]4CC[C@H](C4)[C@H]3C(N)=O)n2)cn1,19
9,NC(=O)[C@@H]1[C@H](Nc2nc(Nc3cnn(C4CCNCC4)c3)ncc2Cl)[C@H]2C=C[C@@H]1C2,2
10,NC(=O)[C@@H]1[C@H](Nc2nc(Nc3cnn(Cc4ccccc4)c3)ncc2Cl)[C@H]2C=C[C@@H]1C2,7
11,Cn1cc(Nc2nccc(N[C@H]3[C@@H](C(N)=O)[C@@H]4C=C[C@H]3C4)n2)cn1,> 12000
12,NC(=O)[C@@H]1[C@H](Nc2nc(Nc3cnn(CCO)c3)ncc2Cl)[C@H]2C=C[C@@H]1C2,6
13,Cc1cnc(Nc2cnn(C)c2)nc1N[C@H]1[C@@H](C(N)=O)[C@@H]2C=C[C@H]1C2,467
14,Cn1cc(Nc2ncc(C(F)(F)F)c(N[C@H]3[C@@H](C(=O)NCCO)[C@@H]4C=C[C@H]3C4)n2)cn1,266
15,Cn1cc(Nc2ncc(C(F)(F)F)c(N[C@H]3[C@@H](C(=O)NC4CC4)[C@@H]4C=C[C@H]3C4)n2)cn1,292

# Molecular target: Aurora kinase B (Homo sapiens, UniProt Q96GD4)
# Experiment: Inhibition of Aurora B kinase by HTRF analysis in presence of 1 mM ATP
# Conditions: not given
# Sequence of Aurora kinase B (Q96GD4 whole entry): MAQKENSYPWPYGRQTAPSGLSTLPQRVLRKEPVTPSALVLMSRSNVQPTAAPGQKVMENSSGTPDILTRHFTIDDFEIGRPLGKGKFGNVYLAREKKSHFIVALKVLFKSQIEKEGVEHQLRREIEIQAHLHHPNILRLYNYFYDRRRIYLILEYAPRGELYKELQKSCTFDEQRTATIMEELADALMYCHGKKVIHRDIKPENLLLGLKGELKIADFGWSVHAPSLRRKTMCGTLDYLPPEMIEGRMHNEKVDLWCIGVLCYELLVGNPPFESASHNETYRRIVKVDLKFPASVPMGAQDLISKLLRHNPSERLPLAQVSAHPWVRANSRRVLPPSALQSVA
row,Compound,IC50 [nM]
1,Cc1cc(Nc2ncc(F)c(N[C@H]3[C@@H](C(N)=O)[C@@H]4C=C[C@H]3C4)n2)ccc1N1CCN(C)CC1,54
2,Cn1cc(Nc2ncc(F)c(N[C@H]3[C@@H](C(N)=O)[C@@H]4C=C[C@H]3C4)n2)cn1,29
3,Cn1cc(Nc2ncc(C(F)(F)F)c(Nc3ccccc3C(N)=O)n2)cn1,16
4,Cn1cc(Nc2ncc(C(N)=O)c(N[C@H]3[C@@H](C(N)=O)[C@@H]4C=C[C@H]3C4)n2)cn1,197
5,Cn1cc(Nc2ncc(C(F)(F)F)c(N[C@H]3[C@@H](C(N)=O)[C@@H]4C=C[C@H]3C4)n2)cn1,28
6,Cn1cc(Nc2ncc(Cl)c(N[C@@H]3CCC[C@@H]3C(N)=O)n2)cn1,32
7,Cn1cc(Nc2ncc(Cl)c(N[C@@H]3[C@H]4CC[C@H](C4)[C@@H]3C(N)=O)n2)cn1,8
8,Cn1cc(Nc2ncc(C(F)(F)F)c(N[C@@H]3[C@H]4CC[C@H](C4)[C@@H]3C(N)=O)n2)cn1,66
9,Cn1cc(Nc2ncc(Cl)c(N[C@H]3[C@H]4CC[C@H](C4)[C@H]3C(N)=O)n2)cn1,31
10,NC(=O)[C@@H]1[C@H](Nc2nc(Nc3cnn(C4CCNCC4)c3)ncc2Cl)[C@H]2C=C[C@@H]1C2,12
11,NC(=O)[C@@H]1[C@H](Nc2nc(Nc3cnn(Cc4ccccc4)c3)ncc2Cl)[C@H]2C=C[C@@H]1C2,12
12,Cn1cc(Nc2nccc(N[C@H]3[C@@H](C(N)=O)[C@@H]4C=C[C@H]3C4)n2)cn1,294
13,NC(=O)[C@@H]1[C@H](Nc2nc(Nc3cnn(CCO)c3)ncc2Cl)[C@H]2C=C[C@@H]1C2,19
14,Cc1cnc(Nc2cnn(C)c2)nc1N[C@H]1[C@@H](C(N)=O)[C@@H]2C=C[C@H]1C2,252
15,Cn1cc(Nc2ncc(C(F)(F)F)c(N[C@H]3[C@@H](C(=O)NCCO)[C@@H]4C=C[C@H]3C4)n2)cn1,99
16,Cn1cc(Nc2ncc(C(F)(F)F)c(N[C@H]3[C@@H](C(=O)NC4CC4)[C@@H]4C=C[C@H]3C4)n2)cn1,51

# Tested on: not listed separately
# Experiment: AUC in CD1(ICR) mouse at 10 mg/kg, ip
# Assay type: ADME, organism-based
# Set-up: dose 10 mg/kg, route intraperitoneal
# Conditions: plasma
row,Compound,AUC [µM·h]
1,NC(=O)[C@@H]1[C@H](Nc2nc(Nc3cnn(C4CCNCC4)c3)ncc2Cl)[C@H]2C=C[C@@H]1C2,2
2,NC(=O)[C@@H]1[C@H](Nc2nc(Nc3cnn(CCO)c3)ncc2Cl)[C@H]2C=C[C@@H]1C2,5

# Tested on: NCI-H1299
# Experiment: Cell cycle arrest in human NCI-H1299 cells assessed as induction of polyploidy after 48 hrs by Hoechst staining-based fluorescence microscopic analysis
# Assay type: functional
# Conditions: NCI-H1299, 48 h
row,Compound,EC15 [nM]
1,Cc1cc(Nc2ncc(F)c(N[C@H]3[C@@H](C(N)=O)[C@@H]4C=C[C@H]3C4)n2)ccc1N1CCN(C)CC1,1
2,Cn1cc(Nc2ncc(F)c(N[C@H]3[C@@H](C(N)=O)[C@@H]4C=C[C@H]3C4)n2)cn1,111
3,Cn1cc(Nc2ncc(C(F)(F)F)c(Nc3ccccc3C(N)=O)n2)cn1,11
4,Cn1cc(Nc2ncc(C(F)(F)F)c(N[C@H]3[C@@H](C(N)=O)[C@@H]4C=C[C@H]3C4)n2)cn1,3
5,Nc1ncc(-c2cnn(CCO)c2)c2scc(-c3ccc(NC(=O)Nc4cccc(F)c4)cc3)c12 [ILORASERTIB],12
6,Cn1cc(Nc2ncc(Cl)c(N[C@@H]3CCC[C@@H]3C(N)=O)n2)cn1,62
7,Cn1cc(Nc2ncc(Cl)c(N[C@@H]3[C@H]4CC[C@H](C4)[C@@H]3C(N)=O)n2)cn1,1
8,Cn1cc(Nc2ncc(C(F)(F)F)c(N[C@@H]3[C@H]4CC[C@H](C4)[C@@H]3C(N)=O)n2)cn1,10
9,Cn1cc(Nc2ncc(Cl)c(N[C@H]3[C@H]4CC[C@H](C4)[C@H]3C(N)=O)n2)cn1,15
10,NC(=O)[C@@H]1[C@H](Nc2nc(Nc3cnn(C4CCNCC4)c3)ncc2Cl)[C@H]2C=C[C@@H]1C2,1
11,NC(=O)[C@@H]1[C@H](Nc2nc(Nc3cnn(Cc4ccccc4)c3)ncc2Cl)[C@H]2C=C[C@@H]1C2,< 1
12,Cn1cc(Nc2nccc(N[C@H]3[C@@H](C(N)=O)[C@@H]4C=C[C@H]3C4)n2)cn1,93
13,NC(=O)[C@@H]1[C@H](Nc2nc(Nc3cnn(CCO)c3)ncc2Cl)[C@H]2C=C[C@@H]1C2,< 1
14,Cc1cnc(Nc2cnn(C)c2)nc1N[C@H]1[C@@H](C(N)=O)[C@@H]2C=C[C@H]1C2,11
15,Cn1cc(Nc2ncc(C(F)(F)F)c(N[C@H]3[C@@H](C(=O)NCCO)[C@@H]4C=C[C@H]3C4)n2)cn1,< 1
16,Cn1cc(Nc2ncc(C(F)(F)F)c(N[C@H]3[C@@H](C(=O)NC4CC4)[C@@H]4C=C[C@H]3C4)n2)cn1,< 1

# Tested on: not listed separately
# Experiment: Aqueous solubility of the compound at pH 7.4 after 24 hrs by chemiluminescent nitrogen detection
# Assay type: physicochemical
# Conditions: not given
row,Compound,solubility at 24 h [µM]
1,NC(=O)[C@@H]1[C@H](Nc2nc(Nc3cnn(C4CCNCC4)c3)ncc2Cl)[C@H]2C=C[C@@H]1C2,68
2,NC(=O)[C@@H]1[C@H](Nc2nc(Nc3cnn(Cc4ccccc4)c3)ncc2Cl)[C@H]2C=C[C@@H]1C2,4
3,NC(=O)[C@@H]1[C@H](Nc2nc(Nc3cnn(CCO)c3)ncc2Cl)[C@H]2C=C[C@@H]1C2,70

# Molecular target: T1, Vascular endothelial growth factor receptor 2
# Experiment: Inhibition of human KDR autophosphorylation expressed in mouse NIH/3T3 cells
# Assay type: cell-based, NIH3T3
# Conditions: not given
row,Compound,IC50 [nM]
1,Cn1cc(Nc2ncc(C(F)(F)F)c(N[C@H]3[C@@H](C(N)=O)[C@@H]4C=C[C@H]3C4)n2)cn1,35
2,Cn1cc(Nc2ncc(Cl)c(N[C@@H]3[C@H]4CC[C@H](C4)[C@@H]3C(N)=O)n2)cn1,84
3,Cn1cc(Nc2ncc(C(F)(F)F)c(N[C@@H]3[C@H]4CC[C@H](C4)[C@@H]3C(N)=O)n2)cn1,61
4,Cn1cc(Nc2ncc(Cl)c(N[C@H]3[C@H]4CC[C@H](C4)[C@H]3C(N)=O)n2)cn1,> 316
5,NC(=O)[C@@H]1[C@H](Nc2nc(Nc3cnn(C4CCNCC4)c3)ncc2Cl)[C@H]2C=C[C@@H]1C2,55
6,NC(=O)[C@@H]1[C@H](Nc2nc(Nc3cnn(Cc4ccccc4)c3)ncc2Cl)[C@H]2C=C[C@@H]1C2,42
7,NC(=O)[C@@H]1[C@H](Nc2nc(Nc3cnn(CCO)c3)ncc2Cl)[C@H]2C=C[C@@H]1C2,48

# Tested on: not listed separately
# Experiment: Metabolic stability of the compound in mouse liver microsomes assessed as compound remaining after 30 mins
# Assay type: ADME, Microsome
# Conditions: read-out: Stability
row,Compound,remaining at 0.5 h [%]
1,NC(=O)[C@@H]1[C@H](Nc2nc(Nc3cnn(C4CCNCC4)c3)ncc2Cl)[C@H]2C=C[C@@H]1C2,76
2,NC(=O)[C@@H]1[C@H](Nc2nc(Nc3cnn(Cc4ccccc4)c3)ncc2Cl)[C@H]2C=C[C@@H]1C2,< 1
3,NC(=O)[C@@H]1[C@H](Nc2nc(Nc3cnn(CCO)c3)ncc2Cl)[C@H]2C=C[C@@H]1C2,45
